Columns and labels:
[1] = tested on: Nippostrongylus brasiliensis; test: In vitro assay 2: Nippostrongylus brasiliensis (NIPOBR), acetylcholine esterase readout; details: read-out: activity (reduction of AChE compared to negative control); for inhibition at 1 µg/mL: 1 μg/ml; for inhibition at 10 µg/mL: 10 μg/ml
Procedure, shortened: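 Readout was acetylcholine esterase activity released into the medium, compared with negative control, after exposing adult worms to compounds at final 10 ppm (10 μg/ml) or 1 ppm (1 μg/ml). Worms were first washed in antibiotic/amphotericin B-containing saline; compounds were dissolved in DMSO.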

[2] = tested on: Dirofilaria immitis microfilariae; test: In vitro assay 3: Dirofilaria immitis microfilariae (DIROIM L1), motility; details: 72 h, read-out: EC50 (reduction of motility), 72 h incubation
[3] = log P by HPLC on reversed phase columns (Method L0)
Protocol: Measurement of log P values was performed according to EEC directive 79/831 Annex V.A8 by HPLC (High Performance Liquid Chromatography) on reversed phase columns with the following methods: • ^[a] log P value is determined by measurement of LC-UV, in an acidic range, with 0.1% formic acid in water and acetonitrile as eluent (linear gradient from 10% acetonitrile to 95% acetonitrile). • ^[b] log P value is determined by measurement of LC-UV, in a neutral range, with 0.001 molar ammonium acetate solution in water and acetonitrile as eluent (linear gradient from 10% acetonitrile to 95% acetonitrile).
Calibration was done with straight-chain alkan-2-ones (with 3 to 16 carbon atoms) with known log P values (measurement of log P values using retention times with linear interpolation between successive alkanones).

Cooperia curticei = details: Cooperia curticei, 120 h, read-out: activity (larval mortality)
Protocol: In Vitro Assay 6: Cooperia curticei (COOPCU L3)
Solvent: dimethyl sulfoxide
Approximately 40 nematode larvae (Cooperia curticei) are transferred into a test tube containing the compound solution.
After 5 days percentage of larval mortality is recorded. 100% efficacy means all larvae are killed; 0% efficacy means no larvae are killed.

Haemonchus contortus = details: 120 h, read-out: activity (larval mortality)
Protocol: In Vitro Assay 7: Haemonchus contortus (HAEMCO L3)
Solvent: dimethyl sulfoxide
Approximately 40 larvae of the red stomach worm (Haemonchus contortus) are transferred into a test tube containing compound solution.
After 5 days the percentage of larval mortality is recorded. 100% efficacy means all larvae are killed, 0% efficacy means no larvae are killed.

C. elegans Slo-1a = C. elegans Slo-1a (Caenorhabditis elegans, UniProt Q95V25); details: pE50 (negative decadic logarithm of EC50), CHO cells expressing C. elegans Slo-1a, voltage sensitive dye
C. elegans Slo-1a, sequence (Q95V25 whole entry): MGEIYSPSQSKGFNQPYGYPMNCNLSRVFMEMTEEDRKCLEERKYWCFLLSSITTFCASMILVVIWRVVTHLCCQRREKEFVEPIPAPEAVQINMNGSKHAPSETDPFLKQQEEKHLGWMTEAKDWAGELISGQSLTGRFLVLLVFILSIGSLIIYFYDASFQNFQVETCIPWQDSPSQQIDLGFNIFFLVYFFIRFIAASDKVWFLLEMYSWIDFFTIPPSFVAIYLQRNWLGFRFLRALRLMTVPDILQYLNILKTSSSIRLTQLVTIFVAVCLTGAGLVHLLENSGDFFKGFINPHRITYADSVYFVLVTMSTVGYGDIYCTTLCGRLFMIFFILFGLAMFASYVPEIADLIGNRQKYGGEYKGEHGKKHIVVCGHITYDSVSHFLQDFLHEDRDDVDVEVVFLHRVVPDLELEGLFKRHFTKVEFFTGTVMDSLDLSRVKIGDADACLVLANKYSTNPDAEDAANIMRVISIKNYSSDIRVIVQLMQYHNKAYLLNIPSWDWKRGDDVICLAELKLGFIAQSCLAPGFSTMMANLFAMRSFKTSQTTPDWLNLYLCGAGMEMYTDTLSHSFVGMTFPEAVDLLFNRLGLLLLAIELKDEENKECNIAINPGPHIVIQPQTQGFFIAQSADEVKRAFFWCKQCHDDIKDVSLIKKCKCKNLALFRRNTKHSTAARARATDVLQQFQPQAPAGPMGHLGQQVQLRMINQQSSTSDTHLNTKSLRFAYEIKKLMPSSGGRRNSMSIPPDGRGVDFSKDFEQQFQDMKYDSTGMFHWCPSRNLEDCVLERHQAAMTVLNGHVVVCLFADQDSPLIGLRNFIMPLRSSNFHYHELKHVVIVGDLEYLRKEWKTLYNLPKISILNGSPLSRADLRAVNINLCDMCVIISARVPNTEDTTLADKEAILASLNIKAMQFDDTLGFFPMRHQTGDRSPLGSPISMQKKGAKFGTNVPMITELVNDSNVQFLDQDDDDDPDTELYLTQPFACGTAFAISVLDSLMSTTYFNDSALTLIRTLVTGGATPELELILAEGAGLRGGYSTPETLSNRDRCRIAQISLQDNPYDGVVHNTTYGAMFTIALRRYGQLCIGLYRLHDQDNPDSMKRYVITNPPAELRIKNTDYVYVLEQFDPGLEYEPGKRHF
Protocol: In Vitro Assay 1: C. elegans Slo-1a—Action at a Recombinant C. elegans Cell Line
Cells were cultured at 37° C. and 5% CO2 in MEMalpha with Gutamax I (Invitrogen, Nr.: 32571), supplemented with 10% (v/v) heat inactivated fetal bovine serum (Invitrogen, Nr.: 10500), G418 (1 mg/ml, Invitrogen, Nr.: 10131). Cells were detached using Accutase (Sigma, Nr.: A6964).
Membrane Potential Measurements
Laboratory compound testing was performed on 384-well microtiter plates (MTPs, Greiner, Nr.: 781092). 8000 cells/well were plated onto 384-well MTPs and cultured for 20 to 24 hours at 37° C. and 5% CO2. After removal of the cell culture medium, the cells were washed once with tyrode (150 mM NaCl, 0.3 mM KCl, 2 mM CaCl2, 1 mM MgCl2, 0.8 mM NaH2PO4, 5 mM Glucose, 28 mM Hepes, pH 7.4) and then loaded with the voltage sensitive dye of the Membrane Potential Assay Kit diluted in tyrode for 1 h at room temperature.
After starting the measurement of fluorescence using a FLIPR Tetra (Molecular Devices, Exc. 510-545 nm, Emm. 565-625 nm), test compounds were added followed by the addition of KCl tyrode (final assay concentration: 70 mM KCl, 2 mM CaCl2, 1 mM MgCl2, 0.8 mM NaH2PO4, 5 mM Glucose, 28 mM Hepes, pH 7.4, including the voltage sensitive dye). The measurement was completed after 7 minutes.
The data were evaluated by using the ActivityBase XLfit software (IDBS) for curve fitting and calculation of the half-maximal effective concentration (EC50) and are reported as negative decadic logarithm (pE50).

[4] = HPLC on reversed phase columns, Method L0
[5] = acidic range, 0.1% formic acid in water / acetonitrile

## O=C(N[C@H]1CCOc2ccccc21)c1cnc2c(-c3cc(Cl)cc(Cl)c3)cccc2c1N1CCC1 [Example 135, 4-(azetidin-1-yl)-8-(3,5-dichlorophenyl)-N-[(4S)-3,4-dihydro-2H-chromen-4-yl]quinoline-3-carboxamide]
[1]
  inhibition at 1 µg/mL: > 80%
  inhibition at 10 µg/mL: > 80%
[2]
  EC50: < 1 µg/mL
[3]
  chromatographic logP: 1.9
Cooperia curticei
  mortality at 20 ppm: 80%
Haemonchus contortus
  mortality at 4 ppm: 90%
  mortality at 20 ppm: 100%
C. elegans Slo-1a
  EC50: < 3.16 nM

## O=C(N[C@H]1CCOc2ccccc21)c1cnc2c(-c3cc(Cl)cc(Cl)c3)cccc2c1N1CC2COCC(C1)O2 [Example 301]
[3]; [4]
  logP (Method L0): 3.3

## O=C(N[C@H]1CCOc2ccccc21)c1cnc2c(-c3cc(Cl)cc(Cl)c3)cccc2c1C1CC1 [Example 358]
[3]; [4]
  logP (Method L0)^[a]: 4.9

## O=C(N[C@H]1CCc2ccccc21)c1cnc2c(-c3cc(Cl)cc(Cl)c3)cccc2c1NCCO [Example 100]
[3]; [4]
  logP (Method L0)[a]: 1.9

## Cn1c(=O)n(C)n(-c2c(C(=O)N[C@H]3CCOc4ccccc43)cnc3c(-c4cccc(Cl)c4Cl)cccc23)c1=O [Example 321]
[3]; [4]
  logP (Method L0)^[a]: 3.37

## COC[C@H]1CCCN1c1c(C(=O)N[C@H]2CCc3ccccc32)cnc2c(-c3cc(Cl)cc(Cl)c3)cccc12 [Example 92]
[3]; [4]
  logP (Method L0)[a]: 2.9

## CCOC(=O)c1cnc2c(-c3cc(Cl)cc(Cl)c3)cccc2c1N1CCOCC1 [Example 1U-13]
[3]; [5]
  logP (Method L0)[a]: 5.19

## COC(=O)CNc1c(C(=O)N[C@H]2CCc3ccccc32)cnc2c(-c3cc(Cl)cc(Cl)c3)cccc12 [Example 128]
[3]; [4]
  logP (Method L0)[a]: 2.1

## CN(c1c(C(=O)N[C@H]2CCOc3ccccc32)cnc2c(-c3cccc(Cl)c3Cl)cccc12)C1CC1 [Example 253]
[3]; [4]
  logP (Method L0): 2.8

## CC[S+]([O-])c1c(C(=O)N[C@H]2CCOc3ccccc32)cnc2c(-c3cc(Cl)cc(Cl)c3)cccc12 (some centres unmarked) [Example 370]
[3]; [4]
  logP (Method L0)^[a]: 4.44

## CCCNc1c(C(=O)N[C@H]2CCOc3ccccc32)cnc2c(-c3cc(Cl)cc(Cl)c3)cccc12 [Example 184]
[3]; [4]
  logP (Method L0): 3

## CN(c1c(C(=O)N[C@H]2CCOc3ccccc32)cnc2c(-c3ccccc3Cl)cccc12)C1CC1 [Example 252]
[3]; [4]
  logP (Method L0): 2.23

## CC[S+]([O-])c1c(C(=O)N[C@H]2CCOc3ccccc32)cnc2c(-c3cccc(Cl)c3Cl)cccc12 (some centres unmarked) [Example 368]
[3]; [4]
  logP (Method L0)^[a]: 3.76

## COc1ccc2c(c1)[C@@H](NC(=O)c1cnc3c(-c4cc(Cl)cc(Cl)c4)cccc3c1N(C)C)CCO2 [Example 147]
[3]; [4]
  logP (Method L0)[a]: 2.76

## NCCNc1c(C(=O)N[C@H]2CCOc3ccccc32)cnc2c(-c3cc(Cl)cc(Cl)c3)cccc12 [Example 185]
[3]; [4]
  logP (Method L0): 2

## O=C(N[C@H]1CCc2ccccc21)c1cnc2c(-c3cc(Cl)cc(Cl)c3)cccc2c1NCCN1CCCC1 [Example 96]
[3]; [4]
  logP (Method L0)[a]: 1.4

## CCC(CO)Nc1c(C(=O)NC2CCc3ccccc32)cnc2c(-c3cc(Cl)cc(Cl)c3)cccc12 (centres unmarked) [Example 99-2]
[3]; [4]
  logP (Method L0)[a]: 2.1

## CC(C)(C)OC(=O)CNc1c(C(=O)N[C@H]2CCOc3ccccc32)cnc2c(-c3cc(Cl)cc(Cl)c3)cccc12 [Example 182]
[3]; [4]
  logP (Method L0): 3.3

## CCNc1c(C(=O)N[C@H]2CCOc3ccccc32)cnc2c(-c3cc(Cl)cc(Cl)c3)cccc12 [Example 153]
[3]; [4]
  logP (Method L0)[a]: 2.1

## CC(=O)N1CCN(c2c(C(=O)N[C@H]3CCc4ccccc43)cnc3c(-c4cc(Cl)cc(Cl)c4)cccc23)CC1 [Example 116]
[3]; [4]
  logP (Method L0)[a]: 3.4

## Nc1c(C(=O)N[C@H]2CCOc3ccccc32)cnc2c(-c3cc(Cl)cc(Cl)c3)cccc12 [Example 58]
[3]; [4]
  logP (Method L0)[a]: 2.11

## NC(=O)CNc1c(C(=O)N[C@H]2CCc3ccccc32)cnc2c(-c3cc(Cl)cc(Cl)c3)cccc12 [Example 129]
[3]; [4]
  logP (Method L0)[a]: 1.8

## CN(CCN1CCCC1=O)c1c(C(=O)N[C@H]2CCOc3ccccc32)cnc2c(-c3cc(Cl)cc(Cl)c3)cccc12 [Example 328]
[3]; [4]
  logP (Method L0)^[a]: 3.3

## O=C(O)c1cnc2c(-c3cccc(Cl)c3Cl)cccc2c1N1CCOCC1 [Example 1W-15]
[3]; [5]
  logP (Method L0)[a]: 1.86

## O=C(N[C@H]1CCOc2ccccc21)c1cnc2c(-c3cc(Cl)cc(Cl)c3)cccc2c1N1CC2CC(C1)O2 [Example 300]
[3]; [4]
  logP (Method L0): 2.6

## O=C(N[C@H]1CCOc2ccccc21)c1cnc2c(-c3cc(Cl)cc(Cl)c3)cccc2c1-n1nccn1 [Example 189, 8-(3,5-dichlorophenyl)-N-[(4S)-3,4-dihydro-2H-chromen-4-yl]-4-(2H-1,2,3-triazol-2-yl)quinoline-3-carboxamide]
[1]
  inhibition at 1 µg/mL: > 80%
[2]
  EC50: < 0.1 µg/mL
[3]
  chromatographic logP: 5
C. elegans Slo-1a
  EC50: < 3.16 nM

## CON(C)c1c(C(=O)N[C@H]2CCOc3ccccc32)cnc2c(-c3cc(Cl)cc(Cl)c3)cccc12 [Example 250]
[3]; [4]
  logP (Method L0): 4.87

## CCOC(=O)c1cnc2c(-c3cc(F)cc(F)c3F)cccc2c1N(C)C [Example 1U-5]
[3]; [5]
  logP (Method L0)[a]: 2.40

## CN(CCO)c1c(C(=O)N[C@H]2CCOc3ccccc32)cnc2c(-c3cc(Cl)cc(Cl)c3)cccc12 [Example 138]
[3]; [4]
  logP (Method L0)[a]: 2.7

## CON(C)c1c(C(=O)N[C@H]2CCOc3ccccc32)cnc2c(-c3cccc(Cl)c3Cl)cccc12 [Example 249]
[3]; [4]
  logP (Method L0): 3.99

## O=C(N[C@H]1CCc2ccccc21)c1cnc2c(-c3cc(Cl)cc(Cl)c3)cccc2c1NCCn1cccn1 [Example 125]
[3]; [4]
  logP (Method L0)[a]: 2.1

## COC[C@@H]1CCCN1c1c(C(=O)N[C@H]2CCc3ccccc32)cnc2c(-c3cc(Cl)cc(Cl)c3)cccc12 [Example 91]
[3]; [4]
  logP (Method L0)[a]: 2.9

## O=C(N[C@H]1CCOc2ccccc21)c1cnc2c(-c3cc(Cl)cc(Cl)c3)cccc2c1-n1ccnn1 [Example 188, 8-(3,5-dichlorophenyl)-N-[(4S)-3,4-dihydro-2H-chromen-4-yl]-4-(1H-1,2,3-triazol-1-yl)quinoline-3-carboxamide]
[2]
  EC50: < 0.1 µg/mL
[3]
  chromatographic logP: 4.5
C. elegans Slo-1a
  EC50: 3.16 to 31.6 nM

## COCCNc1c(C(=O)N[C@H]2CCc3ccccc32)cnc2c(-c3cc(Cl)cc(Cl)c3)cccc12 [Example 89]
[3]; [4]
  logP (Method L0)[a]: 2.2

## O=C(N[C@H]1CCc2ccccc21)c1cnc2c(-c3cc(Cl)cc(Cl)c3)cccc2c1N1CC[C@@H](O)C1 [Example 101]
[3]; [4]
  logP (Method L0)[a]: 1.8

## CCOC(=O)c1cnc2c(-c3cccc(Cl)c3Cl)cccc2c1N1CCOCC1 [Example 1U-15]
[3]; [5]
  logP (Method L0)[a]: 3.90

## O=C(N[C@H]1CCc2ccccc21)c1cnc2c(-c3cc(Cl)cc(Cl)c3)cccc2c1NCc1ccccn1 [Example 99-1]
[3]; [4]
  logP (Method L0)[a]: 2.2

## CCSc1c(C(=O)N[C@H]2CCOc3ccccc32)cnc2c(-c3cccc(Cl)c3Cl)cccc12 [Example 366]
[3]; [4]
  logP (Method L0)^[a]: 4.79

## CN(CC1CC1)c1c(C(=O)N[C@H]2CCc3ccccc32)cnc2c(-c3cc(Cl)cc(Cl)c3)cccc12 [Example 106]
[3]; [4]
  logP (Method L0)[a]: 3.7

## CON(C)c1c(C(=O)N[C@H]2CCOc3ccccc32)cnc2c(-c3ccccc3Cl)cccc12 [Example 248]
[3]; [4]
  logP (Method L0): 3.41

## CN(CC(=O)OC(C)(C)C)c1c(C(=O)N[C@H]2CCOc3ccccc32)cnc2c(-c3cc(Cl)cc(Cl)c3)cccc12 [Example 183]
[3]; [4]
  logP (Method L0): 6

## O=C(N[C@H]1CCc2ccccc21)c1cnc2c(-c3cc(Cl)cc(Cl)c3)cccc2c1N1CCC(F)(F)C1 [Example 112]
[3]; [4]
  logP (Method L0)[a]: 2.6

## CCOC(=O)c1cnc2c(-c3cc(Cl)cc(Cl)c3Cl)c(F)ccc2c1N(C)C [Example 1U-8]
[3]; [5]
  logP (Method L0)[a]: 4.57

## O=C(N[C@H]1CCOc2ccccc21)c1cnc2c(-c3cc(Cl)cc(Cl)c3)cccc2c1Nc1ccncc1 [Example 136]
[3]; [4]
  logP (Method L0)[a]: 2.1

## O=C(N[C@H]1CCOc2ccccc21)c1cnc2c(-c3cc(F)cc(F)c3F)c(Cl)ccc2c1N1CCOCC1 [Example 576]
[3]; [4]
  logP (Method L0)^[a]: 3.90

## CCOC(=O)c1cnc2c(-c3cc(F)cc(F)c3F)c(F)ccc2c1N(C)C [Example 1U-11]
[3]; [5]
  logP (Method L0)[a]: 2.40

## CN(c1c(C(=O)N[C@H]2CCOc3ccccc32)cnc2c(-c3cc(Cl)cc(Cl)c3)cccc12)C1CC1 [Example 254]
[3]; [4]
  logP (Method L0): 3.81

## CNc1c(C(=O)N[C@H]2CCOc3ccccc32)cnc2c(-c3cc(F)c(OC(F)F)c(F)c3)c(F)ccc12 [Example 547]
[3]; [4]
  logP (Method L0)^[a]: 1.81

## Cc1nc2c(-c3cccc(Cl)c3Cl)cccc2c(N(C)C)c1C(=O)N[C@H]1CCOc2ccccc21 [Example 523]
[3]; [4]
  logP (Method L0)^[a]: 2.11

## CN(C)CCNc1c(C(=O)N[C@H]2CCc3ccccc32)cnc2c(-c3cc(Cl)cc(Cl)c3)cccc12 [Example 88]
[3]; [4]
  logP (Method L0)[a]: 1.3

## CCOC(=O)CN(C)c1c(C(=O)N[C@H]2CCOc3ccccc32)cnc2c(-c3cc(Cl)cc(Cl)c3)cccc12 [Example 137, ethyl N-{8-(3,5-dichlorophenyl)-3-[(4S)-3,4-dihydro-2H-chromen-4-ylcarbamoyl]quinolin-4-yl}-N-methylglycinate]
[1]
  inhibition at 1 µg/mL: > 80%
  inhibition at 10 µg/mL: > 80%
[2]
  EC50: < 1 µg/mL
[3]
  chromatographic logP: 4.8
Haemonchus contortus
  mortality at 20 ppm: 80%
C. elegans Slo-1a
  EC50: < 3.16 nM
